Laboratory results from patent US20150045330A1, “PROPHYLACTIC AND THERAPEUTIC DRUG FOR AMYOTROPHIC LATERAL SCLEROSIS AND METHOD OF SCREENING THEREFOR” (priority 2012, published 2015).

What was measured:
[1] = system: TNFα/NF-κB, andorogen receptor and α6β4 integrin pathways; experiment: Signal transduction pathway analysis in ALS-iPS cell-derived neurons; type: cell-based, human; conditions: AA addition vs non-addition; FIG. 13B
ALS-MNs [2] = experiment: Length of neurite in HB9::GFP-positive ALS-MNs (IN Cell Analyzer 2000); type: cell-based, human; conditions: AA addition vs control group; FIGS. 12E and F
ALS-MNs [3] = experiment: MDA (malondialdehyde)-modified protein in total protein by Western blotting; type: cell-based, human; conditions: AA addition vs non-addition, particularly proteins of about 30 kDa to 50 kDa, FIG. 14
Excerpt: Sequentially, to confirm an antioxidant action of AA, the amount of the protein modified with MDA (malondialdehyde) in the total protein was confirmed by Western blotting using 5 to 15% gradient gel in the AA addition group and the AA non-addition group of control MNs or ALS-MNs. […] This tendency was particularly strong in proteins having a size of about 30 kDa to 50 kDa.

NEFL = NEFL expression level in ALS-MNs (quantitative PCR); type: cell-based, human; conditions: AA addition
[4] = system: ALS-iPS cell-derived neurons; experiment: Gene expression category analysis (gene ontology) in ALS-iPS cell-derived neurons; type: cell-based, human; conditions: AA addition vs non-addition; FIG. 13A
NEFM = NEFM expression level in ALS-MNs (quantitative PCR); type: cell-based, human; conditions: AA addition
insoluble TDP-43 = experiment: Amount of TDP-43 protein insoluble in 1% Triton X-100 solution in ALS-MNs; type: cell-based, human; conditions: AA addition, FIGS. 12G and H
ALS-MNs [5] = experiment: Arsenite-induced cell death of iPS cell-derived ALS motor neurons (HB9::GFP-positive cell number); type: cell-based, human; conditions: added 16 or 48 hr before arsenite addition, FIG. 12D
ALS-MNs [6] = system: ALS-MNs

For `CCCCCCCCCCCCCCCc1cccc(O)c1C(=O)O` [anacardic acid], the “TNFα/NF-κB, andorogen receptor and α6β4 integrin pathways” value [1] was “decreased”, the “length of neurite in ALS-MNs” value (ALS-MNs [2]) was “significantly increased” and the “amount of MDA-modified protein in the total protein” value (ALS-MNs [3]) was “decreased the amount”. For the same compound, the “expression level of NEFL” value (NEFL) was “increased”, the “factors relating to intermediate filament cytoskeleton, intermediate filament and keratin filament” value [4] was “increased” and the “factors relating to translation, RNP complex, RNA binding, RNA metabolism pathway, RNA processing, RNA splicing and spliceosomal complex” value [4] was “decreased”. The “expression level of NEFM” value (NEFM) was “increased” and the “amount of insoluble TDP-43” value (insoluble TDP-43) was “decreased”.

With `CO[C@]1(C)C[C@@]2(CO2)[C@H](O)[C@@H](/C=C/C(C)=C/C[C@@H]2O[C@H](C)[C@H](NC(=O)/C=C\[C@H](C)OC(C)=O)C[C@@H]2C)O1` [splicesostatin A] the “suppression of arsenite-induced cell death of ALS-MNs” value (ALS-MNs [5]; 100 ng/ml) was “did not show such action”.

For `CC(/C=C/C(=O)NO)=C\[C@@H](C)C(=O)c1ccc(N(C)C)cc1` [trichostatin A], the “suppression of arsenite-induced cell death of ALS-MNs” value (ALS-MNs [5]; 3 μM) was “did not show such action”.

For arsenite, the RNA granule formation (ALS-MNs [6]) was “promotion”, the “insoluble TDP-43” value (ALS-MNs [6]) was “increase” and the “number of cells subjected to EthD-1-positive injury” value (ALS-MNs [6]) was “significantly high”.
